Results reported in patent publication US8592175B2, “Nitroreductase enzymatic substrates” (bioMérieux, S.A., priority 2009, dated 2013).

Experiments:
Assay in all cases: Color, fluorescence and growth of colonies on Columbia medium with nitroreductase substrate
Format in all cases: cell-based
[1] = test system: Serratia marcescens NCTC 10 211; parameters: key to Growth: NG: no growth; 0.5: low growth; 1: moderate growth; 2: good growth; details: 40 mg substrate in 400 ml Columbia medium, 24 hours at 37° C.
Description: (§1) 40 mg of each of the substrates were dissolved in 4 ml of dimethylsulfoxide and added to 400 ml of previously autoclaved Columbia medium. The 5 media were distributed in Petri dishes 90 mm in diameter at the rate of 20 ml per dish. Seventeen strains of microorganisms obtained from collections and belonging to various species of bacteria and yeasts are inoculated as spots of about 10 000 colony forming units. The media are incubated for 24 hours at 37° C. and then the colonies formed are examined visually and under a UV lamp at 365 nm.

[2] = test system: Enterobacter cloacae NCTC 11 936; parameters: key to Growth: NG: no growth; 0.5: low growth; 1: moderate growth; 2: good growth; details: 40 mg substrate in 400 ml Columbia medium, 24 hours at 37° C.
Description: as §1

[3] = test system: Escherichia coli NCTC 10 418; parameters: key to Growth: NG: no growth; 0.5: low growth; 1: moderate growth; 2: good growth; details: 40 mg substrate in 400 ml Columbia medium, 24 hours at 37° C.
Description: as §1

[4] = test system: Enterococcus faecium NCTC 7 171; parameters: key to Growth: NG: no growth; 0.5: low growth; 1: moderate growth; 2: good growth; key to Fluo.: fluorescence of the colonies / Col.: color of the colonies: —: no color/fluorescence; details: 40 mg substrate in 400 ml Columbia medium, 24 hours at 37° C.
Description: as §1

[5] = test system: Candida glabrata NCPF 3 943; parameters: key to Growth: NG: no growth; 0.5: low growth; 1: moderate growth; 2: good growth; key to Fluo.: fluorescence of the colonies / Col.: color of the colonies: —: no color/fluorescence; details: 40 mg substrate in 400 ml Columbia medium, 24 hours at 37° C.; for Col.: color of the colonies: examined visually
Description: as §1

[6] = test system: Staphylococcus aureus NCTC 11 939; parameters: key to Growth: NG: no growth; 0.5: low growth; 1: moderate growth; 2: good growth; key to Fluo.: fluorescence of the colonies / Col.: color of the colonies: —: no color/fluorescence; details: 40 mg substrate in 400 ml Columbia medium, 24 hours at 37° C.
Description: as §1

[7] = test system: Enterococcus faecalis NCTC 775; parameters: key to Growth: NG: no growth; 0.5: low growth; 1: moderate growth; 2: good growth; key to Fluo.: fluorescence of the colonies / Col.: color of the colonies: —: no color/fluorescence; details: 40 mg substrate in 400 ml Columbia medium, 24 hours at 37° C.
Description: as §1

[8] = test system: Salmonella typhimurium NCTC 74; parameters: key to Growth: NG: no growth; 0.5: low growth; 1: moderate growth; 2: good growth; key to Fluo.: fluorescence of the colonies / Col.: color of the colonies: —: no color/fluorescence; details: 40 mg substrate in 400 ml Columbia medium, 24 hours at 37° C.
Description: as §1

[9] = test system: Staphylococcus aureus NCTC 6 571; parameters: key to Growth: NG: no growth; 0.5: low growth; 1: moderate growth; 2: good growth; key to Fluo.: fluorescence of the colonies / Col.: color of the colonies: —: no color/fluorescence; details: 40 mg substrate in 400 ml Columbia medium, 24 hours at 37° C.
Description: as §1

[10] = test system: Streptococcus pyogenes NCTC 8 306; parameters: key to Growth: NG: no growth; 0.5: low growth; 1: moderate growth; 2: good growth; key to Fluo.: fluorescence of the colonies / Col.: color of the colonies: —: no color/fluorescence; details: 40 mg substrate in 400 ml Columbia medium, 24 hours at 37° C.
Description: as §1

[11] = test system: Bacillus subtilis NCTC 9 372; parameters: key to Growth: NG: no growth; 0.5: low growth; 1: moderate growth; 2: good growth; key to Fluo.: fluorescence of the colonies / Col.: color of the colonies: —: no color/fluorescence; details: 40 mg substrate in 400 ml Columbia medium, 24 hours at 37° C.
Description: as §1

[12] = test system: Yersinia enterocolitica NCTC 11 176; parameters: key to Growth: NG: no growth; 0.5: low growth; 1: moderate growth; 2: good growth; key to Fluo.: fluorescence of the colonies / Col.: color of the colonies: —: no color/fluorescence; details: 40 mg substrate in 400 ml Columbia medium, 24 hours at 37° C.; for Col.: color of the colonies: examined visually
Description: as §1

[13] = test system: Candida albicans ATCC 90 028; parameters: key to Growth: NG: no growth; 0.5: low growth; 1: moderate growth; 2: good growth; key to Fluo.: fluorescence of the colonies / Col.: color of the colonies: —: no color/fluorescence; details: 40 mg substrate in 400 ml Columbia medium, 24 hours at 37° C.; for Col.: color of the colonies: examined visually
Description: as §1

[14] = test system: Pseudomonas aeruginosa NCTC 10 662; parameters: key to Growth: NG: no growth; 0.5: low growth; 1: moderate growth; 2: good growth; key to Fluo.: fluorescence of the colonies / Col.: color of the colonies: —: no color/fluorescence; details: 40 mg substrate in 400 ml Columbia medium, 24 hours at 37° C.
Description: as §1

[15] = test system: Providencia rettgeri NCTC 7 475; parameters: key to Growth: NG: no growth; 0.5: low growth; 1: moderate growth; 2: good growth; key to Fluo.: fluorescence of the colonies / Col.: color of the colonies: —: no color/fluorescence; details: 40 mg substrate in 400 ml Columbia medium, 24 hours at 37° C.; for Col.: color of the colonies: examined visually
Description: as §1

[16] = test system: Staphylococcus epidermidis NCTC 11 047; parameters: key to Growth: NG: no growth; 0.5: low growth; 1: moderate growth; 2: good growth; key to Fluo.: fluorescence of the colonies / Col.: color of the colonies: —: no color/fluorescence; details: 40 mg substrate in 400 ml Columbia medium, 24 hours at 37° C.
Description: as §1

[17] = test system: Listeria monocytogenes NCTC 11 994; parameters: key to Growth: NG: no growth; 0.5: low growth; 1: moderate growth; 2: good growth; key to Fluo.: fluorescence of the colonies / Col.: color of the colonies: —: no color/fluorescence; details: 40 mg substrate in 400 ml Columbia medium, 24 hours at 37° C.
Description: as §1

Q: Which results are given for `COc1cc([N+](=O)[O-])ccc1C=Cc1cc[n+](C)c2ccccc12.[I-]` [4NMSMQ^+I, 4-(4′-nitro-2′-methoxystyryl)-N-methylquinolinium iodide]?
A: Growth [1]: 2; Growth [2]: 2; Growth [3]: 2; Growth [4]: 0.5; Fluo.: fluorescence of the colonies ([4]; UV lamp at 365 nm): —; Col.: color of the colonies ([4]; examined visually): —; Growth [5]: NG; Fluo.: fluorescence of the colonies ([5]; UV lamp at 365 nm): —; Col.: color of the colonies [5]: —; Growth [6]: 2; Fluo.: fluorescence of the colonies ([6]; UV lamp at 365 nm): —; Growth [7]: 2; Fluo.: fluorescence of the colonies ([7]; UV lamp at 365 nm): —; Growth [8]: 1; Fluo.: fluorescence of the colonies ([8]; UV lamp at 365 nm): —; Col.: color of the colonies ([8]; examined visually): —; Growth [9]: 2; Fluo.: fluorescence of the colonies ([9]; UV lamp at 365 nm): —; Growth [10]: 1; Fluo.: fluorescence of the colonies ([10]; UV lamp at 365 nm): —; Col.: color of the colonies ([10]; examined visually): —; Growth [11]: 2; Fluo.: fluorescence of the colonies ([11]; UV lamp at 365 nm): —; Growth [12]: 2; Fluo.: fluorescence of the colonies ([12]; UV lamp at 365 nm): —; Col.: color of the colonies [12]: —; Growth [13]: 0.5; Fluo.: fluorescence of the colonies ([13]; UV lamp at 365 nm): —; Col.: color of the colonies [13]: —; Growth [14]: 1; Fluo.: fluorescence of the colonies ([14]; UV lamp at 365 nm): —; Col.: color of the colonies ([14]; examined visually): —; Growth [15]: 0.5; Fluo.: fluorescence of the colonies ([15]; UV lamp at 365 nm): —; Col.: color of the colonies [15]: —; Growth [16]: 2; Fluo.: fluorescence of the colonies ([16]; UV lamp at 365 nm): —; Growth [17]: 2; Fluo.: fluorescence of the colonies ([17]; UV lamp at 365 nm): —; Col.: color of the colonies ([17]; examined visually): —

Q: Which results are given for `C[n+]1c(C=Cc2ccc([N+](=O)[O-])cc2)ccc2ccccc21.[I-]` [2NSMQ^+I, 2-(4′-nitrostyryl)-N-methylquinolinium iodide]?
A: Growth [1]: 2; Growth [2]: 2; Growth [3]: 2; Growth [4]: 1; Growth [5]: NG; Col.: color of the colonies [5]: —; Growth [6]: NG; Col.: color of the colonies ([6]; examined visually): —; Growth [7]: 1; Growth [8]: 2; Growth [9]: NG; Col.: color of the colonies ([9]; examined visually): —; Growth [10]: 0.5; Growth [11]: 1; Growth [12]: 2; Col.: color of the colonies [12]: Rust; Growth [13]: 0.5; Col.: color of the colonies [13]: —; Growth [14]: 2; Growth [15]: 2; Col.: color of the colonies [15]: Rust; Growth [16]: 0.5; Col.: color of the colonies ([16]; examined visually): —; Growth [17]: 1
